How the values were obtained:
[1] = Capsule perfume leakage in liquid fabric enhancer (LFE), headspace SPME GC/MS; assay type: physicochemical
Protocol: The testing of capsule leakage in liquid compositions (e.g., liquid fabric enhancer/“LFE” compositions and/or heavy-duty liquid/“HDL” detergents) is performed as follows. […] The 1 gram aliquot in the 7 ml vial is then mixed on a stirring plate for 24 h at 500 rpm, thereby ensuring that the capsules are broken by the grinding action of the stir bar against the bottom of the 7 ml vial. Optical microscopy can be used to verify that no more intact capsules remain. In case such capsules are found, the step is to repeated for an additional 24 h, or until all or almost all capsules are broken. Then, the formulation containing broken capsules is introduced into GC vials in a similar manner as for step (a). This yields total oil samples. It is to be noted that the capsule sample and the total oil sample are not analyzed on the same day, as there is a need to prepare the total oil sample after the capsule sample has been removed from storage. […] The perfume oil composition formulated herein is representative of the perfume oil composition that is present in the slurry. Then the free oil formulation is introduced into GC vials in a similar manner as for step (a). This yields reference samples, which must be used when analyzing both the capsule sample and the total oil sample. […] Two headspace vials are prepared for each sample. The sealed headspace vials are then allowed to equilibrate. Samples reach equilibrium after 3 hours at room temperature, but can be left to sit longer without detriment or change to the results, up until 24 hours after sealing the headspace vial. After equilibrating, the samples are analyzed by GC/MS. […] The perfume composition is analyzed by fast GC/MS in full scan mode. Ion extraction of the specific mass for each component is obtained. The leakage is calculated as follows, separately for the capsule sample and total oil sample, where “Area” denotes the area under the chromatogram peak corresponding to the PRM of interest: Once calculated for all PRMs for both the total oil sample and the capsule sample, the corrected PRM leakage can be calculated using the following formula: Once the corrected PRM leakage has been calculated for all PRMs, the Average leakage can be found by taking the arithmetic mean of each corrected PRM leakage. […] The resulting products are stored for one week at 35° C. At the end of the storage period, samples of each product composition are analyzed for perfume leakage out of the capsule using headspace analysis. The data is reported as a percentage, determined by comparing the amount of the individual perfume raw materials found in the headspace to the amount originally provided to the capsules.

[2] = Capsule perfume leakage in heavy-duty liquid (HDL) detergent, headspace SPME GC/MS; assay type: physicochemical
Protocol: The testing of capsule leakage in liquid compositions (e.g., liquid fabric enhancer/“LFE” compositions and/or heavy-duty liquid/“HDL” detergents) is performed as follows. […] The 1 gram aliquot in the 7 ml vial is then mixed on a stirring plate for 24 h at 500 rpm, thereby ensuring that the capsules are broken by the grinding action of the stir bar against the bottom of the 7 ml vial. Optical microscopy can be used to verify that no more intact capsules remain. In case such capsules are found, the step is to repeated for an additional 24 h, or until all or almost all capsules are broken. Then, the formulation containing broken capsules is introduced into GC vials in a similar manner as for step (a). This yields total oil samples. It is to be noted that the capsule sample and the total oil sample are not analyzed on the same day, as there is a need to prepare the total oil sample after the capsule sample has been removed from storage. […] The perfume oil composition formulated herein is representative of the perfume oil composition that is present in the slurry. Then the free oil formulation is introduced into GC vials in a similar manner as for step (a). This yields reference samples, which must be used when analyzing both the capsule sample and the total oil sample. […] Two headspace vials are prepared for each sample. The sealed headspace vials are then allowed to equilibrate. […] After equilibrating, the samples are analyzed by GC/MS. […] The perfume composition is analyzed by fast GC/MS in full scan mode. Ion extraction of the specific mass for each component is obtained. The leakage is calculated as follows, separately for the capsule sample and total oil sample, where “Area” denotes the area under the chromatogram peak corresponding to the PRM of interest: Once calculated for all PRMs for both the total oil sample and the capsule sample, the corrected PRM leakage can be calculated using the following formula: Once the corrected PRM leakage has been calculated for all PRMs, the Average leakage can be found by taking the arithmetic mean of each corrected PRM leakage. […] The resulting products are stored for one week at 35° C. At the end of the storage period, samples of each product composition are analyzed for perfume leakage out of the capsule using headspace analysis. The data is reported as a percentage, determined by comparing the amount of the individual perfume raw materials found in the headspace to the amount originally provided to the capsules.

[3] = PRM of Perfume 1 out of Comparative Example 4-1 capsules (polyacrylate shell), LFE Composition 1, 0.25 wt % perfume
[4] = PRM of Perfume 1 out of Comparative Example 6-1 capsules (no second shell component), LFE Composition 1
[5] = PRM of Perfume 1 out of Comparative Example 10-1 capsules (per EP2500087B1), LFE Composition 1
[6] = PRM of Perfume 1 out of Comparative Example 10-2 capsules (per WO2010013250A2, with IPM), LFE Composition 1
[7] = PRM of Perfume 1 out of Example 2, Sample A capsules, LFE Composition 1 (Ester Quat 1)
[8] = PRM of Perfume 1 out of Example 2, Sample A capsules, LFE Composition 2 (Ester Quat 2)
[9] = PRM of Perfume 1 out of Example 2, Sample A capsules, LFE Composition 3 (Ester Quat 3)
[10] = PRM of Perfume 1 out of Example 4-1 capsules (silica shell), LFE Composition 1, 0.25 wt % perfume
[11] = PRM of Perfume 1 out of Example 6-1 capsules (w/ second shell component), LFE Composition 1
[12] = PRM of Perfume 1 out of Example 10-1 capsules (Sample F, Perfume 1/IPM 40/60), LFE Composition 1
[13] = PRM of Perfume 1 out of Example 10-2 capsules (Sample A), LFE Composition 1
[14] = PRM of Perfume 2 out of Capsule Sample C, LFE Composition 1
[15] = PRM of Perfume 3 out of Capsule Sample D, LFE Composition 1
[16] = PRM of Perfume 1 out of Comparative Example 5-1 capsules (polyacrylate shell)
[17] = PRM of Perfume 1 out of Comparative example 5-2 capsules (per EP2500087B1)
[18] = PRM of Perfume 1 out of Comparative example 5-3 capsules (per WO2010013250A2)
[19] = PRM of Perfume 1 out of Example 5-1 capsules (silica shell)
[20] = PRM of Perfume 4 out of Comparative Example 9-1 capsules (per EP3078415A), LFE Composition 1
[21] = PRM of Perfume 4 out of Comparative Example 9-2 capsules (per EP3078415A, additional TEOS), LFE Composition 1
[22] = PRM of Perfume 4 out of Example 9-1 capsules (Sample E), LFE Composition 1

SMILES	Leakage (as %) after 1 week at 35° C. [1, 3]	Leakage (as %) after 1 week at 35° C. [1, 4]	Leakage (as %) after 1 week at 35° C. [1, 5]	Leakage (as %) after 1 week at 35° C. [1, 6]	Leakage (as %) after 1 week at 35° C. [1, 7]	Leakage (as %) after 1 week at 35° C. [1, 8]	Leakage (as %) after 1 week at 35° C. [1, 9]	Leakage (as %) after 1 week at 35° C. [1, 10]	Leakage (as %) after 1 week at 35° C. [1, 11]	Leakage (as %) after 1 week at 35° C. [1, 12]	Leakage (as %) after 1 week at 35° C. [1, 13]	Leakage (as %) after 1 week at 35° C. [1, 14]	Leakage (as %) after 1 week at 35° C. [1, 15]	Leakage (as %) after 1 week at 35° C. [2, 16]	Leakage (as %) after 1 week at 35° C. [2, 17]	Leakage (as %) after 1 week at 35° C. [2, 18]	Leakage (as %) after 1 week at 35° C. [2, 19]	Leakage (as %) after 1 week at 35° C. [1, 20]	Leakage (as %) after 1 week at 35° C. [1, 21]	Leakage (as %) after 1 week at 35° C. [1, 22]
CCOC(=O)C(C)CC (stereo not drawn) [Ethyl 2-methyl butyrate]	61%	101%	100%	100%	1.3%	1.0%	2.2%	4%	6%	28%	6%	21%	14%	75%	103%	99%	38%			
CC12CCC(CC1)C(C)(C)O2 [Eucalyptol]	5%	72%	97%	96%	2.1%	1.3%	2.0%	7%	8%	26%	8%			1%	104%	101%	28%			
CCC(C)(O)CCCC(C)C (stereo not drawn) [Tetrahydro linalool]	9%	83%	90%	95%	2.3%	1.1%	1.2%	8%	8%	18%	8%	9%	9%	2%	105%	102%	27%	70%	76%	17%
CCC(C)CCCC(C)(C)O (stereo not drawn) [Tetrahydro myrcenol]	10%	86%	88%	95%	2.4%	1.2%	1.2%	8%	7%	17%	7%			3%	107%	105%	26%			
CC(=O)OC1CC2CC1C1CC=CC21 (stereo not drawn) [Verdyl acetate]	4%	20%	89%	94%	1.2%	0.8%	1.2%	5%	7%	17%	7%	6%	8%	1%	107%	104%	26%	67%	72%	13%
